Here are results for one compound from patent publication US20040116369A1, “Interferon regulatory factor-1/human estrogen receptor fusion protein and its use for treating carcinomas” (priority 2001, published 2004).

Assay [1] deals with HepaIRF-1hER cell clones. Put plainly: IFN secretion measured by antiviral assay in culture supernatant. It is filed as cell-based, murine. The following applies: +E2 1 μM, five days, normalized to 10^6 cells. As to the method:
For activation of IRF-1 in the IRF-1-hER fusion protein, E2 (SERVA, Frankfurt, Germany) was added to the cell culture medium to reach a final concentration of 1 μM.
(§1) IFN-Test. The interferon concentrations in the cell culture supernatants were determined by an antiviral assay imploying mouse L929 cells (43). To confirm the specificity of the antiviral activity a neutralizing monoclonal antibody directed against mouse IFN-β was added to the supernatant before addition to the test cells.

Assay [2] relates to NIH3T3TA/IH/MR cells. As to the kind of experiment: Proliferation (metabolic activity, WST). It is filed as cell-based, murine. The following applies: +E2 1 μM, seven days after treatment. As to the method:
(§2) Measurement of cell growth. For determination of cell growth 2×10^3 cells/well were seeded into microtiter plates and serial dilutions (1:1) were performed allowing several independent measurement points. Cells were treated with the indicated concentration of β-estradiol. Cell growth was determined using the WST kit (Roche Diagnostics, Mannheim, Germany) following the manufacturer's instruction. Mean values of triplicates resulting in less than 10% deviation were plotted.
The effects of IRF-1 in oncogenically transformed NIH3T3 cells were examined. NIH3T3 cells conditionally expressing the oncogenes c-myc and c-Ha-ras were used. Both oncogenes were bicistrinically expressed under the control of the tetracycline regulatable promoter (Kröger, Dissertation, Universität Braunschweig, 1999). The cells were stably transfected with the IRF-1-hER fusion protein encoding construct. This cell line allows the investigation of IRF-1 effects in the non-transformed NIH3T3 cells (presence of Doxycycline) and in the transformed state of the cells (absense of Doxycycline). The antitumoral activity of IRF-1 in vitro was investigated: Influence on proliferation, soft agar growth and IFN induction with and without IRF-1hER activation by E2 treatment were measured. This was done in the non-transformed as well as in the transformed state. E2 and Doxycyline were added for five days.

In assay [3] the test system is NIH3T3TA/IH/MR cells. Put plainly: Anchorage independent growth in soft agar. It is filed as cell-based, murine. The following applies: +E2 1 μM, two weeks after treatment. The method, then: Assay for anchorage independent growth. Anchorage-independent growth capability was determined by assessing the colony-formation efficiency of cells suspended in soft agar. 1×10^3 cells were seeded in 50 μl of 0.3% overlay agar in microtiter plates coated with 50 μl 0.6% underlay agar. The induction medium was added to the top (50 μl/well). […] To determine wether IRF-1 reverses the transformed phenotype of the cells to the formation of colonies in soft agar was assayed. […] In contrast, in the absence of Doxycycline (transformed status) the cells grew well and formed soft agar clones. The ability of soft agar growth was completely abolished by the activation of IRF-1 by E2 gift (Table 3).

Assay [4] has as its system NIH3T3TA/IH/MR cells. Put plainly: IFN secretion by antiviral assay. It is filed as cell-based, murine. The following applies: +E2 1 μM, five days, normalized to 10^6 cells. As to the method:
as §1
IFN secretion as determined by an antiviral assay was taken as a measure of IRF-1 activity.

Assay [5] concerns Hepa1-6 (wt) tumors. As to the kind of experiment: Subcutaneous tumor growth in syngeneic C57L/J mice. The following applies: 1.5 mg E2 every two days i.p. It is filed as in vivo. An excerpt: (§3) Tumor model. The Hepa1-6 tumor model in C57L/J mice (44) was chosen because they show reliable growth in the syngeneic host. Hepa1-6 cells are a derivative of the BW7756 mouse hepatoma that arose in a C57L mouse. MHC class I and II expression is identical between C57L and C57L/J mice and Hepa1-6 HCCs are characterized by AFP expression. […] After 6 days, tumors were visible and reached a size of about 2000 mm^3 after a mean time of 18 days. This tumor size was used as endpoint in the invention, and mice were subsequently sacrificed. Tumor incidence and volume were assessed every two days using calipers. Data are presented as mean volume±SE.
(§4) Tumor protection studies. C57L/J mice were inoculated with 1×10^7 Hepa1-6 (groups 1 and 2) or HepaIRF-1hER (groups 3 and 4) cells into the right flank. Group 5 was not inoculated with any tumor. The different groups were treated as follows:
(§5) The efficacy of IRF-1 activation as a therapeutic vaccine against tumors was examined. Mice were injected subcutaneosly with HepaIRF-1hER cells in the right flank and wt Hepa1-6 cells into the left flank. The animals were either treated with 1.5 mg E2 every two days or were left untreated. Activation of IRF-1-hER abolished tumor growth of HepaIRF-1hER cells on the right flank of the mice.

In assay [6] the test system is HepaIRF-1hER tumors. As to the kind of experiment: Subcutaneous tumor growth in syngeneic C57L/J mice. It is filed as in vivo.
Description: as §3, §4, §5

Assay [7] deals with Hepa1-6 cell clones expressing IRF-1hER (c4, c9, c22). Put plainly: Cell growth (WST metabolic activity). It is filed as cell-based, murine. The following applies: Mus musculus, Hepa1-6, 168 h, 7 days after IRF-1 activation, 1 μM β-estradiol, read-out: extent of proliferation inhibition. The method, then:
as §2

The test system of assay [8] is NIH3T3TA/MR/IH cells. Put plainly: Tumor growth of transformed cells in nude mice. It is filed as in vivo, NMRI nude mice. The following applies: 1.5 mg E2 every two days i.p.; 10^6 cells s.c. As to the method:
Male 6-8-week old NMRI nude mice (Harlan Winkelmann, Borchen, Germany) were maintained in the SPF unit of the animal facility of German Research Center for Biotechnology. Mice were divided into two experimental groups, five mice for each group. 1×10^6 cells in 0.2 ml PBS NIH3T3TA/MR/IH cells were injected subcutaneously into the flanks of the mice. The groups were treated as follows: group 1: no treatment (n=5); group 2: 1.5 mg of E2 every two days i.p. (n=4). Tumor volumes were measured and recorded three times a week using calipers. Data are presented as mean value of tumor volume.

In the case of `C[C@]12CC[C@@H]3c4ccc(O)cc4CC[C@H]3[C@@H]1CC[C@@H]2O` [E2, β-estradiol], the IFN secretion in assay [1] (clone c4) amounted to 125 IU/ml; in assay [1] (clone c9) it was 125 IU/ml; in assay [1] (clone c22) it was 180 IU/ml; in assay [4] (+DOX 2 μg/ml) it was 750 IU/ml; in assay [4] (−Dox), 750 IU/ml. The results for the Proliferation in assay [2] (+DOX 2 μg/ml (non-transformed)) and in assay [2] (−Dox (transformed)) were 60% and 65%, respectively. Besides, the “Soft agar growth (number of clones)” value in assay [3] (+DOX 2 μg/ml (non-transformed)) and in assay [3] (−Dox (transformed)) was 0 each time. The “Tumor volume (mean ± SD)” value was 1630 ± 596 mm^3 in assay [5] (Hepa1-6 (wt) 5 × 10^6 cells s.c.); 179 ± 288 mm^3 in assay [5] (Hepa1-6 tumor on left flank of mice also carrying HepaIH on right flank); 22,4 ± 179 mm^3 in assay [6] (HepaIH 5 × 10^6 cells s.c., 1.5 mg E2 every two days i.p.). Further, the “mice protected against challenge” value in assay [6] (HepaIRF-1hER tumor, E2 treatment) was determined as 75%. Moreover, the “tumor size after 40 days” value in assay [6] (the two E2 treated animals that developed tumors) is 450 mm^3. Besides, the inhibition at 1 µM in assay [7] was 40 to 80%. For the same compound, the “mice that developed no tumors” value in assay [8] came to 40%.
